Structures can show the parent of a compound that is named as a salt. Where two headings read alike, the source gives them in different places.

The target in assay [1] is T1, SARS-CoV-2 PLpro (nsp3 1564–1878) (Severe acute respiratory syndrome coronavirus 2, UniProt P0DTD1). The experiment in a line: biochemical. On the set-up: FRET-quenched peptide (Pro3) cleavage by PLpro, 10 min pre-incubation, slope over 20 min, normalised to no-compound control. The settings on record: low concentration screen, read-out: % of control remaining.
Assay [2] deals with T1, SARS-CoV-2 PLpro (nsp3 1564–1878). Nature of the assay: biochemical. On the set-up: FRET-quenched peptide (Pro3) cleavage by PLpro, 10 min pre-incubation, slope over 20 min, normalised to no-compound control. As to conditions: high concentration screen, read-out: % of control remaining.

For `COC(=O)C(C)(N)Cc1ccc(O)cc1` (racemic) [alpha-Methyl-DL-tyrosine methyl ester hydrochloride], in assay [1] (Well no.=1068), the remaining activity at 1.25 µM came out at 97%. The remaining activity at 3.75 µM in assay [2] (Well no.=1068) was determined as 96.5%.

Take `CCCCCCCCCCCCCCCC(=O)NCC(COP(=O)([O-])OCC[N+](C)(C)C)OCC` (racemic) [rac-2-Ethoxy-3-hexadecanamido-1-propylphosphocholine]: in assay [1] (Well no.=747), the remaining activity at 1.25 µM was determined as 93.3%. Further, the remaining activity at 3.75 µM in assay [2] (Well no.=747) is 94.6%.

For the compound `CCCCCCCCCCCCCCCCCC(=O)NCC(COP(=O)([O-])OCC[N+](C)(C)C)OCC` (racemic) [rac-2-Ethoxy-3-octadecanamido-1-propylphosphocholine], the remaining activity at 1.25 µM in assay [1] (Well no.=413) amounted to 102%. Besides, in assay [2] (Well no.=413), the remaining activity at 3.75 µM amounted to 101%.

As to `CCCCCCCCCCCCCCCC(=O)NCC(COP(=O)([O-])OCC[N+](C)(C)C)OC` (racemic) [rac-2-Methoxy-3-hexadecanamido-1-propylphosphocholine], the remaining activity at 1.25 µM in assay [1] (Well no.=1078) came out at 97.5%. The remaining activity at 3.75 µM in assay [2] (Well no.=1078) came out at 96.5%.

Take `CCCCCCCCCCCCCCCCCC(=O)NCC(COP(=O)([O-])OCC[N+](C)(C)C)OC` (racemic) [rac-2-Methoxy-3-octadecanamido-1-propylphosphocholine]: the remaining activity at 1.25 µM in assay [1] (Well no.=1126) came to 96.3%. In addition, the remaining activity at 3.75 µM in assay [2] (Well no.=1126) was found to be 96.8%.

`CCCN(CCc1cccs1)C1CCc2c(O)cccc2C1` (racemic) [rac-Rotigotine (Hydrochloride)]: the remaining activity at 1.25 µM in assay [1] (Well no.=6809) came out at 98.8%. The remaining activity at 3.75 µM in assay [2] (Well no.=6809) came out at 95.7%.

On to `O=C(O)[C@@H]1C[C@@H](C(=O)O)N1` (relative stereo) [trans-Azetidine-2,4-dicarboxylic acid], for which, in assay [1] (Well no.=68), the remaining activity at 1.25 µM was 104%. The remaining activity at 3.75 µM in assay [2] (Well no.=68) stood at 103%.

As to `CN(C)CCC(c1ccc(Br)cc1)c1ccccn1` (single isomer, unassigned; (+)) [(+)-Brompheniramine maleate], the remaining activity at 1.25 µM in assay [1] (Well no.=365) was determined as 98.9%. For the same compound, the remaining activity at 3.75 µM in assay [2] (Well no.=365) worked out at 98.5%.

As for `CN(C)CCC(c1ccc(Cl)cc1)c1ccccn1` (single isomer, unassigned; (+)) [(+)-Chlorpheniramine maleate], the remaining activity at 1.25 µM in assay [1] (Well no.=130) is 105%. In addition, in assay [2] (Well no.=130), the remaining activity at 3.75 µM is 105%.

In the case of `COc1ccc2c3c1O[C@H]1C(=O)CC[C@@]4(O)C(C2)N(CC2CC2)CCC314` (single isomer, unassigned; (-)) [(-)-3-Methoxynaltrexone hydrochloride], the remaining activity at 1.25 µM in assay [1] (Well no.=947) was 98.1%. Besides, the remaining activity at 3.75 µM in assay [2] (Well no.=947) worked out at 97%.

Regarding `CN1CCCC1c1cccnc1` (single isomer, unassigned; (-)) [(-)-Nicotine hydrogen tartrate salt], the remaining activity at 1.25 µM in assay [1] (Well no.=809) is 95.3%. Besides, the remaining activity at 3.75 µM in assay [2] (Well no.=809) is 92.5%.

Consider `C[N+]1(C)C2CC(OC(=O)[C@H](CO)c3ccccc3)CC1C1OC12` (single isomer, unassigned; (-)) [(-)-Scopolamine methyl nitrate], for which, in assay [1] (Well no.=1454), the remaining activity at 1.25 µM came out at 93.9%. In addition, the remaining activity at 3.75 µM in assay [2] (Well no.=1454) was 96.6%.

Take `CC(N)[C@H](O)c1ccc(O)c(O)c1` (single isomer, unassigned; (-)) [(-)-alpha-Methylnorepinephrine]: in assay [1] (Well no.=547), the remaining activity at 1.25 µM was 102%. For the same compound, in assay [2] (Well no.=547), the remaining activity at 3.75 µM is 103%.

`CN1c2ccccc2C(=O)N2CCc3c([nH]c4ccccc34)C21` (stereo in doubt) [Evodiamine]: the remaining activity at 1.25 µM in assay [1] (Well no.=3809) amounted to 95.1%. The remaining activity at 3.75 µM in assay [2] (Well no.=3809) amounted to 98.5%.

With `Cc1ccc(S(=O)(=O)NC(=O)NN2CC3CCC[C@@H]3C2)cc1` (stereo in doubt) [Gliclazide], in assay [1] (Well no.=2176), the remaining activity at 1.25 µM worked out at 101%. Besides, in assay [2] (Well no.=2176), the remaining activity at 3.75 µM was found to be 102%.

Turning to `CC(N)=NCCCCC(N)C(=O)O` (stereo in doubt) [L-N6-(1-Iminoethyl)lysine hydrochloride], in assay [1] (Well no.=871), the remaining activity at 1.25 µM turned out to be 107%. For the same compound, in assay [2] (Well no.=871), the remaining activity at 3.75 µM turned out to be 102%.

`Nc1ncnc2c1c(-c1cccc(OCc3ccccc3)c1)cn2C1CC(CN2CCCC2)C1` (stereo in doubt) [NVP-ADW742]: the remaining activity at 1.25 µM in assay [1] (Well no.=4629) stood at 95.7%. In assay [2] (Well no.=4629), the remaining activity at 3.75 µM was 93.2%.

Take `CC[C@@H](C)C(=O)O[C@H]1[C@H](O)[C@H]2[C@@H](CN3C[C@@H](C)CC[C@H]3[C@@]2(C)O)[C@@H]2C[C@]34O[C@]5(O)[C@@H](OC(=O)[C@](C)(O)[C@@H](C)O)CC[C@@]3(C)[C@@H]5[C@@H](OC(C)=O)[C@@H](OC(C)=O)[C@H]4[C@@]21O` (stereo in doubt) [Protoveratrine B]: the remaining activity at 1.25 µM in assay [1] (Well no.=3454) is 97.9%. Also, the remaining activity at 3.75 µM in assay [2] (Well no.=3454) was found to be 98.3%.

Regarding `CCCCC1(C2CCCC2)Cc2cc(OCC(=O)O)c(Cl)c(Cl)c2C1=O` (stereo in doubt) [R(+)-Butylindazone], the remaining activity at 1.25 µM in assay [1] (Well no.=640) turned out to be 97.4%. Further, the remaining activity at 3.75 µM in assay [2] (Well no.=640) was 101%.

As to `COc1cc(C=CC(=O)O)cc(OC)c1O` (stereo in doubt) [Sinapinic acid], in assay [1] (Well no.=6150), the remaining activity at 1.25 µM is 102%. Moreover, the remaining activity at 3.75 µM in assay [2] (Well no.=6150) was found to be 102%.

In the case of `NCC=CC(=O)O` (stereo in doubt) [cis-4-Aminocrotonic acid], the remaining activity at 1.25 µM in assay [1] (Well no.=114) stood at 97.3%. Besides, the remaining activity at 3.75 µM in assay [2] (Well no.=114) was determined as 98.2%.

With `CC(C)(CN1C(=O)C(Cl)=C(Cl)C1=O)CN1C(=O)C(Cl)=C(Cl)C1=O` [1,1'-(2,2-dimethylpropane-1,3-diyl)bis(3,4-dichloro-1H-pyrrole-2,5-dione)], the remaining activity at 1.25 µM in assay [1] (Well no.=5957) amounted to 102%. In assay [2] (Well no.=5957), the remaining activity at 3.75 µM came out at 105%.

For the compound `COc1cc(C(C)=O)cc(-c2cc(C(C)=O)cc(OC)c2O)c1O` [1,1'-(6,6'-dihydroxy-5,5'-dimethoxy-[1,1'-biphenyl]-3,3'-diyl)bis(ethan-1-one)], in assay [1] (Well no.=5981), the remaining activity at 1.25 µM was determined as 101%. Moreover, the remaining activity at 3.75 µM in assay [2] (Well no.=5981) was found to be 96.6%.

Take `C[N+]1(C)CCN(c2ccccc2)CC1` [1,1-Dimethyl-4-phenyl-piperazinium iodide]: the remaining activity at 1.25 µM in assay [1] (Well no.=741) was found to be 92%. Moreover, the remaining activity at 3.75 µM in assay [2] (Well no.=741) was 92.3%.

`CCCCCCCCCCCCCCCCCCOP(=O)([O-])OC1CC[N+](C)(C)CC1` [1,1-dimethylpiperidinium-4-yl octadecyl phosphate]: the remaining activity at 1.25 µM in assay [1] (Well no.=5460) is 102%. Also, the remaining activity at 3.75 µM in assay [2] (Well no.=5460) came to 107%.

Turning to `BrC1C(Br)C(Br)C(Br)C(Br)C1Br` (centres unmarked) [1,2,3,4,5,6-Hexabromocyclohexane - 1,2,3,4,5,6-Hexabromocyclohexane], in assay [1] (Well no.=2524), the remaining activity at 1.25 µM turned out to be 96.3%. For the same compound, the remaining activity at 3.75 µM in assay [2] (Well no.=2524) is 97.7%.

For the compound `CCCCCCCCCC(=O)OCC(CO)OC(=O)CCCCCCCCC` (centres unmarked) [1,2-Didecanoyl-glycerol (10:0)], the remaining activity at 1.25 µM in assay [1] (Well no.=4474) is 101%. The remaining activity at 3.75 µM in assay [2] (Well no.=4474) amounted to 95.2%.

As for `CCCCCCCC(=O)OC[C@H](CO)OC(=O)CCCCCCC` [1,2-Dioctanoyl-SN-glycerol], the remaining activity at 1.25 µM in assay [1] (Well no.=4476) was determined as 103%. Further, the remaining activity at 3.75 µM in assay [2] (Well no.=4476) was found to be 107%.

Source of the values: PMC8286840, “Identifying SARS-CoV-2 antiviral compounds by screening for small molecule inhibitors of Nsp3 papain-like protease” (Biochemical Journal, 2021).
